In US20250073242A1, “SLC26A3 INHIBITORS AND USE THEREOF” (THE REGENTS OF THE UNIVERSITY OF CALIFORNIA, priority 2021, published 2025):

How the values were obtained:
[1] = target: T1, DRA (Mus musculus, UniProt Q9WVC8); assay: Extracellular action: reversal of DRA inhibition after washout; type: cell-based; conditions: cells incubated 10 min at 5 times IC50; measured at 20-30 second after washout
T1 sequence (Q9WVC8 1-757): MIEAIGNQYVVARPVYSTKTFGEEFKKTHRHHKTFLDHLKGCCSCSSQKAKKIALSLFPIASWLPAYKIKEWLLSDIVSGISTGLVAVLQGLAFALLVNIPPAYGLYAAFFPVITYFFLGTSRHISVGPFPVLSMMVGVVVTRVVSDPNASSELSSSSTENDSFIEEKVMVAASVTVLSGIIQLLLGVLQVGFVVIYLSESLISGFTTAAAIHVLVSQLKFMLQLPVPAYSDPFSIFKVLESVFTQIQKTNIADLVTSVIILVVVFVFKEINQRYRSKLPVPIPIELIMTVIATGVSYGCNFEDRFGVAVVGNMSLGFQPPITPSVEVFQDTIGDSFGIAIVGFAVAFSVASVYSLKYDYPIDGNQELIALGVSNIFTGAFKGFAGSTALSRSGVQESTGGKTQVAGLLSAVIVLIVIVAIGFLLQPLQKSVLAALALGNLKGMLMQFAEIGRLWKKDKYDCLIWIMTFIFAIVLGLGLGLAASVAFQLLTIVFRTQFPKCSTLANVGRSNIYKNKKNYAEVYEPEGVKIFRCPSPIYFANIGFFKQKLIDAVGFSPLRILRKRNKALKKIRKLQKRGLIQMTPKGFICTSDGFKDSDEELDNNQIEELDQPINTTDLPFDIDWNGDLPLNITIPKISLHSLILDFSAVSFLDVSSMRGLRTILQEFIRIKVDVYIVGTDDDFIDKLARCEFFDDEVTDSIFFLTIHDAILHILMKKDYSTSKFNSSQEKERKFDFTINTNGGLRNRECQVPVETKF
Method: Inhibition was then measured without washout and at 20-30 second after washout.

[2] = target: T2, SLC26A3 (Mus musculus, UniProt Q9WVC8); assay: Transepithelial oxalate transport in FRT monolayers expressing SLC26A3; type: cell-based; conditions: pretreatment 15 min, even at 0.1 μM; 500 μM oxalate gradient
T2 sequence (Q9WVC8 1-757): T1 sequence (Q9WVC8 1-757)
Method: In order to determine the effects of DRAinh-A270 on oxalate transport at physiologically relevant concentrations, transepithelial oxalate transport was measured in Fischer rat thyroid (FRT) monolayers expressing SLC26A3 (FRT-A3 cells) permeable filters and exposed to a 500 μM oxalate concentration gradient.
Oxalate transport rate plotted for studies done in FRT cells expressing SLC26A3 (FRT-A3) pretreated with indicated concentrations of DRAinh-A270 (or DMSO control) for 15 min prior to application of the oxalate gradient. FRT cells not expressing SLC26A3 (FRT-null) are shown as controls. Mean±S.E.M., n=6-12 wells per condition. One-way analysis of variance with post hoc Newman-Keuls multiple comparisons test, **p<0.01, ns: not significant.

[3] = system: mouse distal colonic loops; assay: Oxalate absorption in closed distal colonic loops; type: in vivo; conditions: luminal 10 μM, 500 μM oxalate, 60 min
Method: To investigate DRAinh-A270 inhibition of intestinal oxalate transport, experiments were conducted using closed distal colonic loops in which SLC26A3 is the major apical membrane anion transporter. Colonic loops were injected with the solution containing 500 μM sodium oxalate and loop fluid was removed at 60 min to quantify remaining oxalate concentration. To avoid confounding effects of fluid absorption, Cl^−-free solution with amiloride (to block ENaC) was used.

[4] = target: T2, SLC26A3; assay: SLC26A3 inhibition, concentration-dependence (high throughput screening and structure-activity studies); type: cell-based

In the case of `Cc1c(CC(=O)O)c(=O)oc2c(C)c(OCc3cccc(I)c3)ccc12` [DRAinh-A270], the “reversal of inhibition after washout” value [1] is reported as “no reversal”, the “increased oxalate transport in FRT-A3 cells” value [2] is reported as “largely blocked” and the “reduction of oxalate absorption compared to vehicle control” value [3] is reported as about 70%.
With `CC(C)CN1C(=O)c2ccc(C(=O)Nc3ccccc3C(=O)O)cc2C1=O` [DRAinh-E0078] the IC50 ([4]; Class E, Table 1) was 690 nM.
Molecule `Cc1ccc(N2C(=O)c3ccc(C(=O)Nc4ccccc4C(=O)O)cc3C2=O)cc1C` [DRAinh-E2333] has an IC50 ([4]; Class E, Table 1) of 310 nM.
With `Cc1cccc(NS(=O)(=O)c2nnc(NC(=O)c3cccc(C)c3)s2)c1` [DRAinh-F0165] the IC50 ([4]; Class F, Table 2) was 470 nM.
`COc1cccc(C(=O)Nc2nnc(S(=O)(=O)Nc3cccc(C)c3)s2)c1` [DRAinh-F0170] showed an IC50 ([4]; Class F, Table 2) of 310 nM.
Molecule `Cc1ccc(COc2ccc3oc(-c4ccccc4)c(C(=O)O)c3c2)cc1` [DRAinh-H0163] has an IC50 ([4]; Class H, Table 4) of 190 nM.
Molecule `O=C(O)c1c(-c2ccccc2)oc2ccc(OCc3ccc(Cl)c(Cl)c3)cc12` [DRAinh-H0493] has an IC50 ([4]; Class H, Table 4) of 2300 nM.
`Cc1ccccc1COc1ccc2oc(-c3ccccc3)c(C(=O)O)c2c1` [DRAinh-H0696] showed an IC50 ([4]; Class H, Table 4) of 340 nM.
